Molecular target: P. falciparum apicoplast DNA polymerase (Pf-apPOL) (Plasmodium falciparum, UniProt Q8ILY1)
Assay: Fluorescence-based high-throughput DNA polymerase assay (molecular beacon), primary screen and dose-response
Format: biochemical
Settings: for DNA Pol: 90 min, 10 µM; for % inhibition apPOL 180' 2.5 / % inhibition apPOL 180' 5 / % inhibition apPOL 180' 10 / % inhibition apPOL 180' 20 / % inhibition apPOL 180' 40 / % inhibition apPOL 180' 80: read at 180'
Outline: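 Single-point screening used 10 µM compound with 20 nM polymerase, 20 nM hairpin substrate and 6 µM dNTPs for 90 min at 25 °C. Confirmatory titrations (2.5–80 µM) followed fluorescence at three times, and IC50 was derived from a fit including a cooperativity term n.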

Chain of P. falciparum apicoplast DNA polymerase (Pf-apPOL) (Q8ILY1 entry or part of it): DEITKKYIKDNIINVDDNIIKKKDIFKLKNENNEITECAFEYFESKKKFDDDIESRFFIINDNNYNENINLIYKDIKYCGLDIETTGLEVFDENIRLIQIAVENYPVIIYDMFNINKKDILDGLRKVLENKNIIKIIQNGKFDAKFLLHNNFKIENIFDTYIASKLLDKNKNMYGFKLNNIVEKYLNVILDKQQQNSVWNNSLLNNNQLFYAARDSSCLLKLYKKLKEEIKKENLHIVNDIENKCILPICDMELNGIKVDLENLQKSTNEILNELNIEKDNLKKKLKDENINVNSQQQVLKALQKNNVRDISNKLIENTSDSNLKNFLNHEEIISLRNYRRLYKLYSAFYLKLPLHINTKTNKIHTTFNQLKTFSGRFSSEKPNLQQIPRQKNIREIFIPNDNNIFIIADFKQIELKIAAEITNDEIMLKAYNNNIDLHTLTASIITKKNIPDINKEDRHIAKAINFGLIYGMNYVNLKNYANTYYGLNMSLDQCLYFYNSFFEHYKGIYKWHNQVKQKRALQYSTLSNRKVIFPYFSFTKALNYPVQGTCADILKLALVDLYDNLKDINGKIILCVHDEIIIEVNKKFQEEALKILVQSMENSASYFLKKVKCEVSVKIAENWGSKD

CC(=O)c1cc2c(N)c(/C(N)=N/C#N)sc2nc1C [KU0015866]
DNA Pol ('DNA Pol' of the 186 hits list (primary screen value)): 33 | DNA Pol (DNA Pol (primary screen value)): 33 | % inhibition Apo pol 10' (DRC-1, concentration 2.5): 6.515% | % inhibition Apo pol 10' (DRC-1, concentration 5): 12.7693% | % inhibition Apo pol 10' (DRC-1, concentration 10): 31.7983% | % inhibition Apo pol 10' (DRC-1, concentration 20): 44.0355% | % inhibition Apo pol 10' (DRC-1, concentration 40): 64.9344% | % inhibition Apo pol 10' (DRC-1, concentration 80): 81.2768% | % inhibition Apol 90' (DRC-1, concentration 2.5): -0.6957% | % inhibition Apol 90' (DRC-1, concentration 5): -1.631% | % inhibition Apol 90' (DRC-1, concentration 10): 8.506% | % inhibition Apol 90' (DRC-1, concentration 20): 14.7865% | % inhibition Apol 90' (DRC-1, concentration 40): 35.058% | % inhibition Apol 90' (DRC-1, concentration 80): 75.8739% | % inhibition apPOL 180' (DRC-1, concentration 2.5): -1.629% | % inhibition apPOL 180' (DRC-1, concentration 5): -5.477% | % inhibition apPOL 180' (DRC-1, concentration 10): 0.782% | % inhibition apPOL 180' (DRC-1, concentration 20): 3.3611% | % inhibition apPOL 180' (DRC-1, concentration 40): 18.0593% | % inhibition apPOL 180' (DRC-1, concentration 80): 70.7811% | % inhibition Apo pol 5' (DRC-2, concentration 2.5): 7% | % inhibition Apo pol 5' (DRC-2, concentration 5): 12% | % inhibition Apo pol 5' (DRC-2, concentration 10): 28% | % inhibition Apo pol 5' (DRC-2, concentration 20): 37% | % inhibition Apo pol 5' (DRC-2, concentration 40): 40% | % inhibition Apo pol 5' (DRC-2, concentration 80): 37% | % inhibition Apol 40' (DRC-2, concentration 2.5): 6% | % inhibition Apol 40' (DRC-2, concentration 5): 4.46% | % inhibition Apol 40' (DRC-2, concentration 10): 19% | % inhibition Apol 40' (DRC-2, concentration 20): 33% | % inhibition Apol 40' (DRC-2, concentration 40): 48% | % inhibition Apol 40' (DRC-2, concentration 80): 55% | % inhibition ApPOL 90' (DRC-2, concentration 2.5): 4.51% | % inhibition ApPOL 90' (DRC-2, concentration 5): 1.44% | % inhibition ApPOL 90' (DRC-2, concentration 10): 14% | % inhibition ApPOL 90' (DRC-2, concentration 20): 25% | % inhibition ApPOL 90' (DRC-2, concentration 40): 45% | % inhibition ApPOL 90' (DRC-2, concentration 80): 56% | % inhibition apPOL 180' (DRC-2, concentration 2.5): -4.65% | % inhibition apPOL 180' (DRC-2, concentration 5): -9% | % inhibition apPOL 180' (DRC-2, concentration 10): -0.253% | % inhibition apPOL 180' (DRC-2, concentration 20): 10% | % inhibition apPOL 180' (DRC-2, concentration 40): 34% | % inhibition apPOL 180' (DRC-2, concentration 80): 54%

Cc1ccsc1Cn1c(C)ccc1C [Molecule 70, Cc1ccsc1Cn1c(C)ccc1C]
DNA Pol (186 hits, DNA Pol (screen value), unit not given): 77 | DNA Pol ('DNA Pol' (screen value), unit not given): 77 | % inhibition Apo pol 10' 2.5 (DRC-1, read at 10', concentration 2.5): 0.1737% | % inhibition Apo pol 10' 5 (DRC-1, read at 10', concentration 5): 5.431% | % inhibition Apo pol 10' 10 (DRC-1, read at 10', concentration 10): 19.8551% | % inhibition Apo pol 10' 20 (DRC-1, read at 10', concentration 20): 37.488% | % inhibition Apo pol 10' 40 (DRC-1, read at 10', concentration 40): 56.0716% | % inhibition Apo pol 10' 80 (DRC-1, read at 10', concentration 80): 76.6416% | % inhibition Apol 90' 2.5 (DRC-1, read at 90', concentration 2.5): -5.458% | % inhibition Apol 90' 5 (DRC-1, read at 90', concentration 5): -2.713% | % inhibition Apol 90' 10 (DRC-1, read at 90', concentration 10): 8.027% | % inhibition Apol 90' 20 (DRC-1, read at 90', concentration 20): 21.1278% | % inhibition Apol 90' 40 (DRC-1, read at 90', concentration 40): 39.127% | % inhibition Apol 90' 80 (DRC-1, read at 90', concentration 80): 69.1434% | % inhibition apPOL 180' 2.5 (DRC-1, concentration 2.5): -10.1468% | % inhibition apPOL 180' 5 (DRC-1, concentration 5): -7.921% | % inhibition apPOL 180' 10 (DRC-1, concentration 10): -1.934% | % inhibition apPOL 180' 20 (DRC-1, concentration 20): 6.387% | % inhibition apPOL 180' 40 (DRC-1, concentration 40): 21.8537% | % inhibition apPOL 180' 80 (DRC-1, concentration 80): 54.6421% | % inhibition Apol 40' (DRC-2, concentration 80): 62% | % inhibition apPOL 180' (DRC-2, concentration 2.5): -6% | % inhibition apPOL 180' (DRC-2, concentration 5): -6% | % inhibition apPOL 180' (DRC-2, concentration 80): 62% | % inhibition Apo pol 5' 2.5 (DRC-2, read at 5', concentration 2.5): -3.3% | % inhibition Apo pol 5' 5 (DRC-2, read at 5', concentration 5): 5.66% | % inhibition Apo pol 5' 10 (DRC-2, read at 5', concentration 10): 20% | % inhibition Apo pol 5' 20 (DRC-2, read at 5', concentration 20): 32% | % inhibition Apo pol 5' 40 (DRC-2, read at 5', concentration 40): 48% | % inhibition Apo pol 5' 80 (DRC-2, read at 5', concentration 80): 47% | % inhibition Apol 40' 2.5 (DRC-2, read at 40', concentration 2.5): -1.81% | % inhibition Apol 40' 5 (DRC-2, read at 40', concentration 5): 4% | % inhibition Apol 40' 10 (DRC-2, read at 40', concentration 10): 18% | % inhibition Apol 40' 20 (DRC-2, read at 40', concentration 20): 33% | % inhibition Apol 40' 40 (DRC-2, read at 40', concentration 40): 56% | % inhibition Apol 40' 80 (DRC-2, read at 40', concentration 80): 62% | % inhibition ApPOL 90' 2.5 (DRC-2, read at 90', concentration 2.5): -3% | % inhibition ApPOL 90' 5 (DRC-2, read at 90', concentration 5): -0.174% | % inhibition ApPOL 90' 10 (DRC-2, read at 90', concentration 10): 14% | % inhibition ApPOL 90' 20 (DRC-2, read at 90', concentration 20): 28% | % inhibition ApPOL 90' 40 (DRC-2, read at 90', concentration 40): 54% | % inhibition ApPOL 90' 80 (DRC-2, read at 90', concentration 80): 64% | % inhibition apPOL 180' 2.5 (DRC-2, concentration 2.5): -6% | % inhibition apPOL 180' 5 (DRC-2, concentration 5): -6% | % inhibition apPOL 180' 10 (DRC-2, concentration 10): 5.64% | % inhibition apPOL 180' 20 (DRC-2, concentration 20): 16% | % inhibition apPOL 180' 40 (DRC-2, concentration 40): 45% | % inhibition apPOL 180' 80 (DRC-2, concentration 80): 62%

Source: PMC9090415, “Discovery of small molecule inhibitors of Plasmodium falciparum apicoplast DNA polymerase” (Journal of Enzyme Inhibition and Medicinal Chemistry, 2022)
